Measurements taken from US9765018B2, “IDO inhibitors” (BRISTOL-MYERS SQUIBB COMPANY, priority 2013, dated 2017).

Biological target: IDO (Homo sapiens (Human), UniProt P14902)
Assay: Kynurenine assay in IFN-γ-stimulated Hela cells
Format: cell-based
Settings: 20 h, read-out: Hela Kyurenine (IC50)
Procedure: Reagents: Hela cells (ATCC, CCL-2)
IFNg (R&D, 28-IF-100)—resuspend at 10 ug/mL in PBS with 0.1% BSA 30% TCA
Ehrlich reagent (2% w/v p-dimethylaminobenzaldehyde in glacial acetic acid)
Cell Lines and Culture Conditions
Hela cancer cell lines were acquired from the American Type Culture Collection. Cells were maintained in phenol red free-RPMI1640 medium containing high glucose and L-glutamine (Invitrogen) supplemented with 10% fetal bovine serum (FBS; Invitrogen). Cell cultures were incubated at 37° C., 5% CO2, and 100% humidity.
Cell Treatment and Kynurenine Assay
Hela cells were seeded on 96-well plates (40,000 cells per well) and allowed to adhere for 5-6 hours. Cells were then treated with vehicle (DMSO) or with IDO inhibitor at a top dose of 30 μM (3-fold dilution all the way down to 1.5 nM). A final concentration of 100 ng/mL of human recombinant IFN-γ (R&D, 28-IF-100) was immediately added to the cells to stimulate IDO expression. Treated cells were then incubated for 20 hours at 37° C. At the end of the 20 h incubation, reactions were terminated by the addition of 30% TCA to each well. Plates were incubated for 30 minutes at 50° C. to hydrolyze N-formylkynurenine to kynurenine. Cells were centrifuged 10 minutes at 2400 rpm. 100 ul of supernatants were transferred to new 96 flat well plates and mixed with 100 ul Ehrlich reagent. The resulting solution was incubated 10 minutes at RT. Absorbance at 490 nm was read using Spectra Max 384 (Molecular Devices).

Sequence of IDO (P14902 whole entry): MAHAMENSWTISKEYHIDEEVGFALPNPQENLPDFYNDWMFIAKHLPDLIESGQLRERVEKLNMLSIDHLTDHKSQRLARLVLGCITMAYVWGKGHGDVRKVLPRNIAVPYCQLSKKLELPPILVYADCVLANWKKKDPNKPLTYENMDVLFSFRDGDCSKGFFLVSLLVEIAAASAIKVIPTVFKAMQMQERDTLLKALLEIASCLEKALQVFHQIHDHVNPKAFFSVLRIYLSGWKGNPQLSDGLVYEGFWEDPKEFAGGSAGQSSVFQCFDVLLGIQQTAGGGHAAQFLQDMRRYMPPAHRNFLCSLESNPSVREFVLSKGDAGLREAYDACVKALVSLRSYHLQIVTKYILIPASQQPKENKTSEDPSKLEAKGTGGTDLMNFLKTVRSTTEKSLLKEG

| SMILES | IC50 [nM] |
| --- | --- |
| COc1ccc(-c2ccc(Oc3ccccc3C(C)(C)C)c(NC(=O)NC3CCCCC3)c2)cc1C(=O)O [Example 91, 4′-(2-(tert-butyl)phenoxy)-3′-(3-(cyclohexyl)ureido)-4-methoxy-[1,1′-biphenyl]-3-carboxylic acid] | 250 |
| COc1ccc(-c2ccc(Oc3ccccc3C(C)(C)C)c(NC(=O)Nc3cccc(C)c3C)c2)cc1C(=O)O [Example 92, 4′-(2-(tert-butyl)phenoxy)-3′-(3-(2,3-dimethylphenyl)ureido)-4-methoxy-[1,1′-biphenyl]-3-carboxylic acid] | 240 |
| COc1ccc(NC(=O)Nc2cc(-c3ccc(OC)c(C(=O)O)c3)ccc2Oc2ccccc2C(C)(C)C)c(C)c1 [Example 93, 4′-(2-(tert-butyl)phenoxy)-4-methoxy-3′-(3-(4-methoxy-2-methylphenyl)ureido)-[1,1′-biphenyl]-3-carboxylic acid] | 620 |
| COc1ccc(-c2ccc(Oc3ccccc3C(C)(C)C)c(NC(=O)Nc3cc(C)ccc3C)c2)cc1C(=O)O [Example 95, 4′-(2-(tert-butyl)phenoxy)-3′-(3-(2,5-dimethylphenyl)ureido)-4-methoxy-[1,1′-biphenyl]-3-carboxylic acid] | 260 |
| COc1ccc(-c2ccc(Oc3ccccc3C(C)(C)C)c(NC(=O)Nc3ccc(C)c(C)c3)c2)cc1C(=O)O [Example 96, 4′-(2-(tert-butyl)phenoxy)-3′-(3-(3,4-dimethylphenyl)ureido)-4-methoxy-[1,1′-biphenyl]-3-carboxylic acid] | 180 |
| COc1ccc(-c2ccc(Oc3ccccc3C(C)(C)C)c(NC(=O)Nc3cccc(Cl)c3C)c2)cc1C(=O)O [Example 98, 4′-(2-(tert-butyl)phenoxy)-3′-(3-(3-chloro-2-methylphenyl)ureido)-4-methoxy-[1,1′-biphenyl]-3-carboxylic acid] | 160 |
| COc1ccc(-c2ccc(Oc3ccccc3C(C)(C)C)c(NC(=O)Nc3ccc(C(C)(C)C)cc3)c2)cc1C(=O)O [Example 99, 4′-(2-(tert-butyl)phenoxy)-3′-(3-(4-(tert-butyl)phenyl)ureido)-4-methoxy-[1,1′-biphenyl]-3-carboxylic acid] | 220 |
| COc1ccc(-c2ccc(Oc3ccccc3C(C)(C)C)c(NC(=O)Nc3ccc(C)cc3F)c2)cc1C(=O)O [Example 100, 4′-(2-(tert-butyl)phenoxy)-3′-(3-(2-fluoro-4-methylphenyl)ureido)-4-methoxy-[1,1′-biphenyl]-3-carboxylic acid] | 470 |
| COc1ccc(-c2ccc(Oc3ccccc3C(C)(C)C)c(NC(=O)Nc3ccc(N(C)C)cc3)c2)cc1C(=O)O [Example 101, 4′-(2-(tert-butyl)phenoxy)-3′-(3-(4-(dimethylamino)phenyl)ureido)-4-methoxy-[1,1′-biphenyl]-3-carboxylic acid] | 1010 |
| COc1ccc(-c2ccc(Oc3ccccc3C(C)(C)C)c(NC(=O)Nc3ccc4c(c3)CCC4)c2)cc1C(=O)O [Example 102, 4′-(2-(tert-butyl)phenoxy)-3′-(3-(2,3-dihydro-1H-inden-5-yl)ureido)-4-methoxy-[1,1′-biphenyl]-3-carboxylic acid] | 220 |
| COc1ccc(-c2ccc(Oc3ccccc3C(C)(C)C)c(NC(=O)Nc3cc(Cl)ccc3Cl)c2)cc1C(=O)O [Example 104, 4′-(2-(tert-butyl)phenoxy)-3′-(3-(2,5-dichlorophenyl)ureido)-4-methoxy-[1,1′-biphenyl]-3-carboxylic acid] | 100 |
| COc1ccc(-c2ccc(Oc3ccccc3C(C)(C)C)c(NC(=O)Nc3ccc(Cl)c(Cl)c3)c2)cc1C(=O)O [Example 105, 4′-(2-(tert-butyl)phenoxy)-3′-(3-(3,4-dichlorophenyl)ureido)-4-methoxy-[1,1′-biphenyl]-3-carboxylic acid] | 370 |
| COc1ccc(-c2ccc(Oc3ccccc3C(C)(C)C)c(NC(=O)Nc3cccc(C#N)c3)c2)cc1C(=O)O [Example 108, 4′-(2-(tert-butyl)phenoxy)-3′-(3-(3-cyanophenyl)ureido)-4-methoxy-[1,1′-biphenyl]-3-carboxylic acid] | 720 |
| COc1ccc(Cl)cc1NC(=O)Nc1cc(-c2ccc(OC)c(C(=O)O)c2)ccc1Oc1ccccc1C(C)(C)C [Example 109, 4′-(2-(tert-butyl)phenoxy)-3′-(3-(5-chloro-2-methoxyphenyl)ureido)-4-methoxy-[1,1′-biphenyl]-3-carboxylic acid] | 600 |
| C#CCNC(=O)Nc1cc(-c2ccc(OC)c(C(=O)O)c2)ccc1Oc1ccccc1C(C)(C)C [Example 119, 4′-(2-tert-butylphenoxy)-4-methoxy-3′-(3-prop-2-ynylureido)biphenyl-3-carboxylic acid] | 780 |
| CC(C)(C)c1ccccc1Oc1ccc(-c2ccccc2C(=O)O)cc1NC(=O)Nc1ccccc1Cl [Example 155, 4′-(2-tert-butylphenoxy)-3′-(3-(2-chlorophenyl)ureido)biphenyl-2-carboxylic acid] | 450 |

| SMILES | IC50 [nM] |
| --- | --- |
| Cc1cccc(NC(=O)Nc2cc(-c3ccc(Cl)cc3C(=O)O)ccc2Oc2ccccc2C(C)(C)C)c1 [Example 160, 4′-(2-tert-butylphenoxy)-4-chloro-3′-(3-m-tolylureido)biphenyl-2-carboxylic acid] | 1320 |
| CC(C)(C)c1ccccc1Oc1ccc(-c2ccccc2-c2nnn[nH]2)cc1NC(=O)Nc1ccccc1Cl [Example 179, 1-(4-(2-tert-butylphenoxy)-2′-(1H-tetrazol-5-yl)biphenyl-3-yl)-3-(2-chlorophenyl)urea] | 210 |
| Cc1cccc(NC(=O)Nc2cc(-c3ccccc3-c3nnn[nH]3)ccc2Oc2ccccc2C(C)(C)C)c1 [Example 182, 1-(4-(2-tert-butylphenoxy)-2′-(1H-tetrazol-5-yl)biphenyl-3-yl)-3-m-tolylurea] | 1050 |
| CC(C)(C)c1ccccc1Oc1ccc(-c2ccccc2-c2nnn[nH]2)cc1NC(=O)Nc1ccccc1C(F)(F)F [Example 183, 1-(4-(2-tert-butylphenoxy)-2′-(1H-tetrazol-5-yl)biphenyl-3-yl)-3-(2-(trifluoromethyl)phenyl)urea] | 690 |
| O=C(Nc1ccccc1)Nc1cc(-c2ccccc2-c2nnn[nH]2)ccc1Oc1cccc2c1CCCC2 [Example 184, 1-phenyl-3-(4-(5,6,7,8-tetrahydronaphthalen-1-yloxy)-2′-(1H-tetrazol-5-yl)biphenyl-3-yl)urea] | 1100 |
| O=C(Nc1ccccc1Cl)Nc1cc(-c2ccccc2-c2nnn[nH]2)ccc1Oc1cccc2c1CCCC2 [Example 186, 1-(2-chlorophenyl)-3-(4-(5,6,7,8-tetrahydronaphthalen-1-yloxy)-2′-(1H-tetrazol-5-yl)biphenyl-3-yl)urea] | 1130 |
| Cc1ccccc1NC(=O)Nc1cc(-c2ccc(C(=O)O)cc2)ccc1Oc1ccccc1C(C)(C)C [Example 200, 4′-(2-tert-butylphenoxy)-3′-- (3-o-tolylureido) biphenyl-4-carboxylic acid] | 1520 |
| CC(C)(C)c1ccccc1Oc1ccc(-c2ccc(C(=O)O)cc2)cc1NC(=O)Nc1ccccc1Cl [Example 202, 4′-(2-tert-butylphenoxy)-3′-(3-(2-chlorophenyl)ureido)biphenyl-4-carboxylic acid] | 1690 |
| O=C(Nc1ccccc1Cl)Nc1cc(-c2ccc(C(=O)O)c(Cl)c2)ccc1Oc1ccccc1C(F)(F)F [Example 203, 3-chloro-3′-(3-(2-chlorophenyl)ureido)-4′-(2-(trifluoromethyl)phenoxy)biphenyl-4-carboxylic acid] | 500 |
| Cc1cccc(NC(=O)Nc2cc(-c3ccc(C(=O)O)c(Cl)c3)ccc2Oc2ccccc2C(F)(F)F)c1 [Example 204, 3-chloro-3′-(3-m-tolylureido)-4′-(2-(trifluoromethyl)phenoxy)biphenyl-4-carboxylic acid] | 1250 |
| Cc1ccc(NC(=O)Nc2cc(-c3ccc(C(=O)O)c(Cl)c3)ccc2Oc2ccccc2C(F)(F)F)cc1 [Example 205, 3-chloro-3′-(3-p-tolylureido)-4′-(2-(trifluoromethyl)phenoxy)biphenyl-4-carboxylic acid] | 850 |
| O=C(Nc1ccc(C(F)(F)F)cc1)Nc1cc(-c2ccc(C(=O)O)c(Cl)c2)ccc1Oc1ccccc1C(F)(F)F [Example 207, 3-chloro-4′-(2-(trifluoromethyl)phenoxy)-3′-(3-(4-(trifluoromethyl)phenyl)ureido) biphenyl-4-carboxylic acid] | 1230 |
| CC(C)(C)c1ccccc1Oc1ccc(-c2ccc(C(=O)O)cc2)cc1NC(=O)Nc1ccc(C(F)(F)F)cc1 [Example 209, 4′-(2-tert-butylphenoxy)-3′-(3-(4-(trifluoromethyl)phenyl)ureido) biphenyl-4-carboxylic acid] | 1740 |
| CC(C)(C)c1ccccc1Oc1ccc(-c2ccc(C(=O)O)cc2)cc1NC(=O)Nc1ccccc1C(F)(F)F [Example 210, 4′-(2-tert-butylphenoxy)-3′-(3-(2-(trifluoromethyl)phenyl)ureido) biphenyl-4-carboxylic acid] | 1540 |
| COc1cc(-c2ccc(Oc3ccccc3C(C)(C)C)c(NC(=O)Nc3ccccc3C)c2)ccc1C(=O)O [Example 211, 4′-(2-tert-butylphenoxy)-3-methoxy-3′-(3-o-tolylureido) biphenyl-4-carboxylic acid] | 1630 |
